Source: patent US12486269B2 (Aconcagua Bio, Inc., priority 2024, dated 2025)

How the values were obtained:
[1] = target: T1, human calcitonin receptor (CTR) (Homo sapiens, UniProt P30988); assay: Calcitonin Receptor (CTR) cAMP Assay; format: cell-based; details: COS7-human CTR Clone #2 stable cell line, cAMP dynamic 2 kit, 30 min; read-out: Calcitonin Receptor cAMP Stimulation Activity: EC50
T1 construct: expressed in transfected cells; host or cells: COS-7 (COS7-human CTR Clone #2)
T1 sequence (P30988 25-474): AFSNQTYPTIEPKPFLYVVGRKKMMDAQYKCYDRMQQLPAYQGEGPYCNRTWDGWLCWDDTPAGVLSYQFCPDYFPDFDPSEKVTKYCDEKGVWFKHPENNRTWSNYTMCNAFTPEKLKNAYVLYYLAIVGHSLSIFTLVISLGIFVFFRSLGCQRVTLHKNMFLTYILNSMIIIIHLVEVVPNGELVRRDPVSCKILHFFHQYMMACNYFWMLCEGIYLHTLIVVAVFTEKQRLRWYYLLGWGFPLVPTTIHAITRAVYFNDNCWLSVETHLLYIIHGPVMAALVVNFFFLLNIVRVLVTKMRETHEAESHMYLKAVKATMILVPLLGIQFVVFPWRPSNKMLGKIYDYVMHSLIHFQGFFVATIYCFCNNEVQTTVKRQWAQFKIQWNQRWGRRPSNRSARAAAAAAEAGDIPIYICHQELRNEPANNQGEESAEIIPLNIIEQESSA
Method in brief: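 cAMP accumulation was measured by HTRF cAMP dynamic 2 read at 665/615 nm, 1 h at room temperature, with results scaled between vehicle and positive control. Before detection, COS7-human CTR stable cells were stimulated 30 min at 37 °C with compound (4-fold dilutions) in IBMX-containing HBSS/HEPES/casein buffer.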

[2] = target: T2, COS-7/AMY3 (human calcitonin receptor (CTR) and RAMP3) (Homo sapiens, UniProt O60896+P30988); assay: Amylin Receptor cAMP Assay II; format: cell-based; details: values marked **: Amylin Receptor cAMP Assay II; COS-7/AMY3 cells, cAMP dynamic 2 kit, 30 min; read-out: Amylin Receptor cAMP Stimulation Activity: EC50
T2 construct: expressed in transfected cells; host or cells: COS-7
Method in brief: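 Agonist-induced cAMP was quantified by HTRF ratio at 665/615 nm and expressed as % of the window from vehicle to MAX control. Stimulation lasted 30 min at 37 °C in HBSS/20 mM HEPES/0.5 mM IBMX/0.1% casein, using stable human CTR+RAMP3 (AMY3) COS-7 cells at 2000 per well.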

T2 sequence (O60896 24-148, one chain of several): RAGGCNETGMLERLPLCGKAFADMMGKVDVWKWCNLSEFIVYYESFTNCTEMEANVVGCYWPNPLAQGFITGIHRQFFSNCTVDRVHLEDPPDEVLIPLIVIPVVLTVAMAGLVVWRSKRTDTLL

| SMILES | EC50 [1] | EC50 [2] |
| --- | --- | --- |
| COc1c(F)ccc2c1CC[C@H]2Nc1nccc2cc(-c3c4c(nc(CCc5cccc(Cl)c5)c3-c3n[nH]c(=O)o3)C35CC(CN3C4=O)C5)sc12 [Compound 277, (R)-5-(2-(3-chlorophenethyl)-4-(7-((5-fluoro-4-methoxy-2,3-dihydro-1H-inden-1-yl)amino)thieno[2,3-c]pyridin-2-yl)-5-oxo-8,9-dihydro-5H,7H-8,9a-methanopyrido[2,3-a]pyrrolizin-3-yl)-1,3,4-oxadiazol-2(3H)-one] | 0.0207 nM | 0.368 nM |
| O=C1c2c(nc(CCc3ccc(F)cc3)c(-c3n[nH]c(=O)o3)c2-c2cnc3c(ccn3Cc3ccc(F)cn3)c2)[C@@H]2CCCN12 [Compound 177, (S)-5-(2-(4-fluorophenethyl)-4-(1-((5-fluoropyridin-2-yl)methyl)-1H-pyrrolo[2,3-b]pyridin-5-yl)-5-oxo-7,8,9,9a-tetrahydro-5H-pyrido[2,3-a]pyrrolizin-3-yl)-1,3,4-oxadiazol-2(3H)-one] | 39.4 nM | 1810 nM |
| COc1c(Cl)cc2c(c1F)CC[C@H]2Nc1nccc2cc(-c3c4c(nc(CCc5ccc(F)cc5)c3-c3n[nH]c(=O)o3)[C@@H]3CCCN3C4=O)sc12 [Compound 256, 5-[(9aS)-4-[7-[[(1R)-6-chloro-4-fluoro-5-methoxy-indan-1-yl]amino]thieno[2,3-c]pyridin-2-yl]-2-[2-(4-fluorophenyl)ethyl]-5-oxo-7,8,9,9a-tetrahydropyrido[2,3-a]pyrrolizin-3-yl]-3H-1,3,4-oxadiazol-2-one] | 0.33 nM | 12.8 nM |
| O=C1c2c(nc(CCc3ccc(F)cc3)c(-c3n[nH]c(=O)o3)c2-c2cc3ccnc(N[C@@H]4CCc5c(F)cc(F)cc54)c3s2)C23CC(CN12)C3 [Compound 279, (R)-5-(4-(7-((4,6-difluoro-2,3-dihydro-1H-inden-1-yl)amino)thieno[2,3-c]pyridin-2-yl)-2-(4-fluorophenethyl)-5-oxo-5,7,8,9-tetrahydro-8,9a-methanopyrido[2,3-a]pyrrolizin-3-yl)-1,3,4-oxadiazol-2(3H)-one] | 0.051 nM | 0.318 nM |

Further molecules by falling EC50 [1], results first:

| EC50 [1] | EC50 [2] | SMILES |
| --- | --- | --- |
| 11.5 nM | 89.3 nM | COc1cccc2c1CC[C@H]2Nc1nccc2cc(-c3c4c(nc(C[C@@H]5COc6cc(F)ccc65)c3-c3n[nH]c(=O)o3)[C@@H]3CCCN3C4=O)sc12 [Compound 218, 5-((S)-2-(((S)-6-fluoro-2,3-dihydrobenzofuran-3-yl)methyl)-4-(7-(((R)-4-methoxy-2,3-dihydro-1H-inden-1-yl)amino)thieno[2,3-c]pyridin-2-yl)-5-oxo-7,8,9,9a-tetrahydro-5H-pyrido[2,3-a]pyrrolizin-3-yl)-1,3,4-oxadiazol-2(3H)-one] |
| 5.12 nM | 75.7 nM | N#Cc1ccc(Cn2c(=O)oc3cc(-c4c(-c5n[nH]c(=O)o5)c(CCc5ccc(F)cc5)nc5c4S(=O)(=O)CC54CC4)ccc32)nc1 [Compound 238, 6-((6-(5′-(4-fluorophenethyl)-1′,1′-dioxido-6′-(5-oxo-4,5-dihydro-1,3,4-oxadiazol-2-yl)-2′H-spiro[cyclopropane-1,3′-thieno[3,2-b]pyridin]-7′-yl)-2-oxobenzo[d]oxazol-3(2H)-yl)methyl)nicotinonitrile] |
| 4.36 nM | 143 nM | COc1cccc2c1CC[C@H]2Nc1nccc2cc(-c3c4c(nc(CCc5ccc(C6CC6)cc5)c3-c3noc(=O)[nH]3)[C@@H]3CCCN3C4=O)sc12 [Compound 127, 3-((S)-2-(4-cyclopropylphenethyl)-4-(7-(((R)-4-methoxy-2,3-dihydro-1H-inden-1-yl)amino)thieno[2,3-c]pyridin-2-yl)-5-oxo-7,8,9,9a-tetrahydro-5H-pyrido[2,3-a]pyrrolizin-3-yl)-1,2,4-oxadiazol-5(4H)-one] |
